Values after ≈ are worked out from the molar mass of the structure shown. Read-outs that look alike come from different tables or passages of the source.
Columns and labels:
Propionibacterium acnes [1] = test: Minimum growth inhibitory concentration (MIC) on Propionibacterium acnes (Test Example 1); type: cell-based, Propionibacterium acnes (ATCC 6919); settings: for MIC: Cutibacterium acnes; for Antibacterial activity (in words): inhibition of proliferation of Propionibacterium acnes, as compared with eugenol
Protocol: The minimum growth inhibitory concentrations (MIC) of the compounds (2) and (3) as obtained in Production Examples 1 and 2 on Propionibacterium acnes were determined in the following manner.
59.0 g of a GAM (Gifu anaerobic medium) bouillon medium (manufactured by Nissui Pharmaceutical Co., Ltd.) was dissolved in 1 liter of purified water and a test compound was added thereto so as to give a concentration of 100 μg/ml. A serial 2-fold dilution of the mixture thus obtained was made with the medium followed by sterilization. 10 ml portions of the mixture were pipetted into test tubes and each inoculated with 0.1 ml of Propionibacterium acnes (ATCC 6919) which had been pre-incubated to give a cell concentration of 1×10^8 cells/mi. After stationary incubation under anaerobic conditions for 48 hours, the turbidity was measured at a wavelength of 660 nm. […] For comparison, MIC of eugenol, which had been known as having a relatively strong antibacterial activity, on Propionibacterium acnes was determined.

[2] = system: Staphylococcus epidermidis, Pseudomonas aeruginosa, Corynebacterium species, Aerobacter kleps and Candida albicans; settings: in words; cited from earlier work
Propionibacterium acnes [3] = settings: cited from earlier work
[4] = Propionibacterium acnes, GAM bouillon medium, anaerobic, 48 hours, turbidity at 660 nm, read-out: MIC

SMILES | Antibacterial activity (in words) (Propionibacterium acnes [1]) | MIC (Propionibacterium acnes [1]; [4]) [µg/mL] | other results
CC(C)CCCC(C)CCCC(C)CCCC(C)O (centres unmarked) [compound (2), 6,10,14-trimethylpentadecan-2-ol] | intense antibacterial activity | – | MIC (Propionibacterium acnes [1]; 48 h): 3.13 µg/mL (≈ 11.6 µM)
CC(C)=CCCC(C)=CCCC(C)=CCCC(C)O (centres unmarked) [compound (3), 6,10,14-trimethyl-5,9,13-pentadecatrien-2-ol] | intense antibacterial activity | 1.56 (≈ 5.9 µM) | –
C=CCc1ccc(O)c(OC)c1 [eugenol] | – | 50 (≈ 304 µM) | –
CC(C)=CCCC(C)=CCCC(C)=CCO [farnesol, 3,7,11-trimethyldodeca-2,6,10-trien-1-ol] | – | – | growth inhibitory effect [2]: exhibits a growth inhibitory effect; antibacterial activity, used alone (Propionibacterium acnes [3]; farnesol used alone): little activity; antibacterial activity, used in combination (Propionibacterium acnes [3]; in combination with phenyl hydroxyalkyl ether and glycerol monolaurate): exhibits an antibacterial activity
